{"source": "patent US4055648A", "about": "“Papaverine thienyl-carboxylates and medicaments containing them” (Choay S.A., priority 1974, dated 1977)", "key": {"[1]": {"conditions": "administration in repeated doses; cited from earlier work"}, "[2]": {"system": "unilateral cerebral oedema", "assay": "unilateral cerebral oedema: cortical electrogenesis (\"R\" index) and residual cortical reactivity, intraduodenal route", "format": "in vivo, rabbit", "procedure": "The effect of a medicament on the oxygen and glucose metabolisms is estimated, in this test, by the reduction in the deleterious effects of oedema on certain parameters with respect to the controls.\nThe technique used is that described in the work \"Aggressology\" 1972, 13, Vol. IV, p. 257-259 (M.G. Borzex, M. Labos, J. Cahn). The principle of the test consists of producing unilateral ablation of a bone flap of 7 to 10 mm diameter in the occipital region. The incision, 48 hours later, of the dura mater or dural (membrane which surrounds the brain) results in the formation of an oedema.\nTwo essential parameters are selected to judge the seriousness of the oedematous effect and to subsequently permit estimation of the effects of the compound under study: electrogenesis on the \"injured\" hemisphere and the development of residual cortical reactivity in this same hemisphere.\nThe electrogenesis is judged by variations in the index (R), defined as the ratio of the number of rapid rhythms (theta arousal rhythm) to the number of slow waves of the electrocorticogram (determined by electroencephalography). On the injured side, the size of the slow waves tends to increase and that of the thetarhythm connected with the arousal response to be eliminated.\nThe residual cortical reactivity of the hemisphere carrying the cerebral oedema expresses the percentage of reactivity which persists with regard to a sensorial stimulation (auditive stimulation or nociceptive stimulation of the cutanous nerve ends by pinching of the dorsal skin) despite the oedematous degradation.\nAn active medicament tends to increase the value of the \"R\" index and to reestablish the residual cortical reactivity of the animals which have undergone the operation. The activities of the medicament expressed in % growth for the index R, and in % growth for the residual cortical reactivity, are compared with results observed in the controls.\nThe study was carried out on 42 male rabbits, active, of average weight 2.5 kg (and in eight control animals). The product to be tested (papaverine thienyl-2-carboxylate) was administered by the intraduodenal route, […] after ablation of the bone flap and just before the incision of the dural. This route of administration was selected since it is equivalent to the administration by the oral route.\nThe rabbits studied were divided in the following manner:\na series of eight \"control\" animals receiving 2 ml/kg of isotonic chloride solution;\nthree series of eight rabbits, each having received respectively 5, 10 and 20 mg/kg of papaverine hydrochloride;\ntwo series of eight animals, each receiving respectively 6.2 and 12.4 mg/kg of papaverine thienyl-2-carboxylate (dissolved in alcoholized water, containing 1 ml of alcohol per 30 ml of water);\nlastly, two rabbits receiving 2 mg/kg of papaverine hydrochloride dissolved in alcoholized water.\nThe doses of 5 and 10 mg/kg of papaverine hydrochloride correspond respectively to doses of 6.2 and 12.4 mg/kg of papaverine thienyl-2-carboxylate, if reduced to the corresponding doses of papaverine-base (respectively 4.51 and 9.02 mg/kg).\nThe development of the two above indicated parameters (expressed below in average values) is observed for 30 hours following the incision of the dural."}, "solubility": {"assay": "solubility", "format": "physicochemical"}, "platelet adhesivity": {"system": "platelet adhesivity", "assay": "in vivo platelet adhesivity in thrombin-sensitized rabbit", "conditions": "thrombin 20 U i.v.", "procedure": "(§1) The technique used is that described in the study \"Disseminated and localized intravascular coagulations\" of C. Raby, Masson et Cie, 1970, p. 91-93.\n(§2) The parameter used in this technique is the level of platelet adhesivity. The blood to be tested is run through a column of glass beads. Platelet counts are carried out on the blood before and after passage respectively through the glass beads. The difference between these two counts enables the level of platelet adhesivity to be estimated. Comparison of the adhesivity ratios, measured in the treated animals and in the controlled animals, enables the effect of the product under test to be estimated.\nIn the in vivo test the animal to be tested (the rabbit) is injected with thrombin (20 U) by the intravenous route, for the purpose of sensitizing the platelets, and the product under study is then injected. The behavior of the platelets is studied by samples taken before and after administration of the product under study.\n(§3) Papaverine thienyl-2-carboxylate has, in all these tests, been applied in the dissolved state in a 1 % aquous solution of methanol in isotonic chloride solution, in the proportion of 13 mg of papaverine thienyl-2-carboxylate per 100 ml of this solution.\n30 Animals were treated in the in vivo tests:\n10 animals with the thrombin alone (control animals), […]"}, "[3]": {"system": "platelet adhesivity (blood)", "assay": "in vitro platelet adhesivity (glass bead column, Raby technique)", "format": "cell-based", "conditions": "at equal doses expressed in terms of papaverine base", "procedure": "as §1, §2\nIn in vitro test the levels of platelet adhesivity measured on control specimens of blood and on blood specimens to which have previously been added doses of the product under test, are compared.\nas §3"}, "LD50 by the oral route": {"assay": "LD50 by the oral route", "conditions": "in vivo, mouse", "description": "Study of the LD50 (by the oral route) in the mouse has established the complete inoccuousness of papaverine thienyl-carboxylates."}, "[4]": {"system": "platelet adhesivity; disturbances of electrogenesis at the level of the brain", "assay": "overall comparison of papaverinic activity (platelet adhesivity, brain disturbances, cortical reactivity)", "conditions": "associated with / expressed as papaverine base"}}, "note": "“Also recorded” adds a separate entry of the source. Counter-ions that a name gives are not always drawn.", "data": [{"smiles": "COc1ccc(Cc2nccc3cc(OC)c(OC)cc23)cc1OC", "note": "[papaverine]", "values": [{"measurement": "secondary effects", "setting": "[1]", "result": "somnolence, constipation, increased excitability of the reflexes and digestive disorders"}]}, {"smiles": "COc1ccc(Cc2nccc3cc(OC)c(OC)cc23)cc1OC", "note": "[papaverine hydrochloride, reference compound]", "values": [{"measurement": "activity in cerebral oedema", "setting": "[2]; 5 mg/kg intraduodenal (4.51 mg/kg papaverine base), hydrochloride", "result": "practically inactive; also recorded: practically ineffective"}, {"measurement": "treated animals with biological effect", "setting": "[2]; 10 mg/kg intraduodenal", "result": "about 50%"}, {"measurement": "rabbits with improved residual cortical reactivity", "setting": "[2]; 10 mg/kg intraduodenal, 2 hours following administration", "result": "four rabbits out of eight"}, {"measurement": "improvement of residual cortical reactivity (average)", "setting": "[2]; 10 mg/kg intraduodenal, 2 hours following administration, average in eight rabbits", "result": 29, "unit": "%"}, {"measurement": "rise in the \"R\" index", "setting": "[2]; 10 mg/kg intraduodenal, between 4 and 6 hours", "result": 14, "unit": "%"}, {"measurement": "rise in the \"R\" index", "setting": "[2]; 10 mg/kg intraduodenal, first 4 hours", "result": 19, "unit": "%"}, {"measurement": "animals affected (\"R\" ratio)", "setting": "[2]; 20 mg/kg intraduodenal", "result": "six animals in eight"}, {"measurement": "improvement of residual cortical reactivity", "setting": "[2]; 20 mg/kg intraduodenal, between 4 and 6 hours", "result": "about 23%"}, {"measurement": "improvement of residual cortical reactivity", "setting": "[2]; 20 mg/kg intraduodenal, during 4 hours, same proportion as \"R\" ratio", "result": "improved in the same proportion"}]}, {"smiles": "COc1ccc(Cc2nccc3cc(OC)c(OC)cc23)cc1OC", "note": "[papaverine thienyl-3-carboxylate, Papaverine thienyl-3-carboxylate]", "values": [{"measurement": "solubility in hot ethanol", "setting": "solubility; hot ethanol", "result": "Soluble"}, {"measurement": "solubility in methanol", "setting": "solubility", "result": "Soluble"}, {"measurement": "solubility", "setting": "solubility; water, read-out: solutions in water, content of product", "result": "≤ 10000", "unit": "µg/mL"}]}, {"smiles": "COc1ccc(Cc2nccc3cc(OC)c(OC)cc23)cc1OC", "note": "[papaverine citrate, reference compound]", "values": [{"measurement": "effect on platelet adhesivity", "setting": "platelet adhesivity; 32 γ/ml (20 γ/ml papaverine base)", "result": "inactive"}]}, {"smiles": "COc1ccc(Cc2nccc3cc(OC)c(OC)cc23)cc1OC", "note": "[papaverine thienyl-2-carboxylate]", "values": [{"measurement": "activity relative to known salts of papaverine", "setting": "[3]", "result": "considerably greater than that of the known salts of papaverine used"}, {"measurement": "effect on platelet adhesivity", "setting": "platelet adhesivity; 2.88 γ/ml (2.10 γ/ml papaverine base)", "result": "act favourably on the adhesivity rate of the platelets"}, {"measurement": "activity in cerebral oedema", "setting": "[2]; 6.2 mg/kg intraduodenal", "result": "active"}, {"measurement": "effect compared with papaverine hydrochloride 20 mg/kg", "setting": "[2]; 6.2 mg/kg intraduodenal", "result": "rather similar to that exerted by a dose of 20 mg/kg of papaverine hydrochloride"}, {"measurement": "rabbits with very distinct improvement of the two parameters", "setting": "[2]; 6.2 mg/kg intraduodenal (4.51 mg/kg papaverine base)", "result": "five rabbits out of eight"}, {"measurement": "extension in the duration of the arousal reactions on the injured hemisphere", "setting": "[2]; 6.2 mg/kg intraduodenal, between second and fourth hours, average in eight rabbits", "result": 45.4, "unit": "%"}, {"measurement": "duration of improvement of the two parameters", "setting": "[2]; 6.2 mg/kg intraduodenal, five rabbits out of eight", "result": "at least 4 hours"}, {"measurement": "effect compared with papaverine hydrochloride 20 mg/kg", "setting": "[2]; 12.4 mg/kg intraduodenal", "result": "slightly more intense effect and more prolonged than a dose twice as great of papaverine hydrochloride"}, {"measurement": "persistence of improvement of residual cortical reactivity", "setting": "[2]; 12.4 mg/kg intraduodenal", "result": "remaining substantially stable during the first 6 hours"}, {"measurement": "rabbits with particularly distinct effect", "setting": "[2]; 12.4 mg/kg intraduodenal", "result": "seven rabbits out of eight"}, {"measurement": "average rise in the \"R\" index", "setting": "[2]; 12.4 mg/kg intraduodenal (9.02 mg/kg papaverine base)", "result": 38.5, "unit": "%"}, {"measurement": "average improvement of residual cortical reactivity", "setting": "[2]; 12.4 mg/kg intraduodenal, maximum effect between 2 and 4 hours, eight rabbits", "result": 54.2, "unit": "%"}, {"measurement": "activity on residual cortical reactivity compared with papaverine hydrochloride", "setting": "[2]; intraduodenal", "result": "much more marked activity"}, {"measurement": "activity compared with papaverine hydrochloride", "setting": "[2]; intraduodenal, collected results", "result": "distinctly more active than papaverine hydrochloride"}, {"measurement": "LD50 at 48 h", "setting": "LD50 by the oral route", "result": 1300, "unit": "mg/kg"}, {"measurement": "solubility in methanol", "setting": "solubility", "result": "Soluble"}, {"measurement": "solubility in warm ethanol", "setting": "solubility; warm ethanol", "result": "Soluble"}, {"measurement": "papaverinic activity compared with known papaverine salts", "setting": "[4]", "result": "to a much higher degree; also recorded: distinctly higher than the salts of papaverine used until now"}]}]}
